According to patent publication US20080187492A1, “Drosophila Models For Diseases Affecting Learning and Memory” (priority 2004, published 2008):

Columns and labels:
[1] = test system: Drosophila expressing mutant huntington protein in the MBs; test: Naive courtship and short-term memory in Drosophila expressing mutant huntington in the MBs; format: in vivo; conditions: 5 day old flies; p<0.05
Excerpt: Both HDAC inhibition and CBP overexpression should in theory promote an increase CREB mediated gene transcription. […] Since we knew that we could use a PDE-4 inhibitor or mGluR antagonists or lithium to increase cAMP levels thereby promoting CREB mediated transcription, we decided to see if these compounds could restore the memory deficit in Drosophila expressing mutant huntington in the MBs.

[2] = test system: FS (dFMR1-3+frame shifted rescue fragment) flies; test: Conditioned courtship: immediate recall (0 minute memory), FS flies; format: in vivo, Drosophila melanogaster; conditions: adulthood alone or both
Protocol: To assess immediate recall (0 minute memory), after the one hour training session with a previously mated female, the male was placed with a virgin target female for a ten-minute interval. This CI was then compared to the courtship level of naive males that had been placed in the training chamber for one hour with no female, before introducing them to a virgin target female for a ten-minute interval. In FIG. 1B the w1118 and Rescue lines show depression of courtship activity after training compared to naive trained males (p<0.005). However, dFMR1-3 and FS mutant lines court just as vigorously after training with a previously mated female as naive trained males, therefore these flies display no experience dependent behavioral plasticity at the time point of immediate recall. This is in spite of the fact that they court to similar levels as w1118 and Rescue lines during the training period. This implicates a deficit in synaptic plasticity for the two mutant lines at immediate recall (0 minute memory). This robust deficit in behavioral plasticity is a critical extension of the previous models of Fragile X syndrome in model organisms, since this has been completely missing in Drosophila models and is subtle in murine models, and particularly since this may be one of the most devastating aspects of the human disease.
Immediate recall. […]

[3] = test system: Rescue (dFMR1-3+wild type rescue fragment) flies; test: Quality of naive courtship (progress to later courtship steps), Rescue flies; format: in vivo, Drosophila melanogaster; conditions: 5 day old
Protocol: In order to determine if MPEP can get into the Drosophila central nervous system (CNS) through feeding behavior, we mixed MPEP into the food at a concentration of 1,000 μg/ml (433.0 μM). Males were raised on CT food and then placed on either CT or M food. Naive males were placed in the training chamber for one hour with no female, and then placed with a virgin target female for a ten-minute interval. The naive courtship behavior was reduced by high MPEP concentration in Rescue (p<0.0001) and FS (p<0.0005) lines, and it was depressed to similar levels by high MPEP treatment in the Rescue and FS groups (FIG. 2A). […] FIG. 2B dissects the steps involved in naive courtship behavior. […] Lowering the dose of MPEP and examining naive courtship. We next decided to try a lower dose of MPEP to 200 μg/ml (86.6 μM) mixed into the food of the Drosophila. In these experiments flies were placed on either CT or M food in the larval stage and then placed on either CT of M food within four hours of eclosion. […] Therefore giving this drug in adulthood only is effective in enhancing naive courtship behavior. […] Further analysis of the quality of courtship that was performed by naive males was assessed by binning the number of males to advance to a particular phase of courtship for each genotype and pharmacologic treatment (FIG. 3B).

Row | Compound | short-term memory [1] | immediate recall ([2]; 20-day-old, MPEP in development alone) | immediate recall (courtship immediately after training vs naive) ([2]; 5 day old, MPEP 200 μg/ml in development alone, p<0.0001) | quality of naive courtship ([3]; MPEP 200 μg/ml in adulthood only (CT-M)) | steps involved in naive courtship behavior ([3]; MPEP 1,000 μg/ml in adulthood, relative to CT-CT Rescue)
1 | N[C@](CC1c2ccccc2Oc2ccccc21)(C(=O)O)[C@H]1C[C@@H]1C(=O)O [LY341495, (2S)-2-amino-2-[(1S,2S)-2-carboxycycloprop-1-yl]-3-(xanth-9-yl) propionic acid] | restored short-term memory | – | – | – | –
2 | Cc1cccc(C#Cc2ccccc2)n1 [MPEP, 2-methyl-6-(phenylethynyl)pyridine] | – | sufficient to restore synaptic plasticity in FS flies | sufficient to rescue synaptic plasticity in FS flies | progressed to later phases of courtship to similar levels as all other groups | failed to progress to later steps in courtship behavior
